Tested on: PATU8988T-SmBKRAS-LgBCRAF
Assay: KRAS:CRAF interaction luminescence (EndoBind) relative to DMSO control (fold of DMSO); higher = more KRAS-CRAF complex
Description: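 EndoBind assay: PATU8988T cells with CRISPR knock-in SmB-KRAS(G12V) and LgB-CRAF, seeded with RealTime-Glo pro-substrate (1:2000) in 384-well plates. Cells were treated with RAF inhibitors (GDC0879, LY3009120, NVP-LHS533) or the MEK inhibitor Selumetinib, and the same plate was read for split-NanoLuc luminescence at several time points. Signal is normalised to the DMSO-treated wells at each time point; n=3 wells.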

OCCn1cc(-c2ccc3c(c2)CC/C3=N\O)c(-c2ccncc2)n1 [GDC0879]
KRAS:CRAF interaction luminescence
Conditions	time after treatment 0 h	time after treatment 1 h	time after treatment 4 h	time after treatment 6 h	time after treatment 9 h	time after treatment 12 h
0.00375 µM	0.967	0.989	0.964	0.967	0.958	0.9832
0.0075 µM	1.03	1.03	0.976	0.964	0.958	0.982
0.015 µM	0.987	1.03	0.985	0.966	0.953	0.969
0.03 µM	0.989	1.1	1.03	1.03	1.01	1.01
0.06 µM	0.977	1.22	1.1	1.09	1.07	1.08
0.12 µM	0.964	1.27	1.19	1.18	1.14	1.16
0.24 µM	0.983	1.4	1.4	1.38	1.36	1.36
0.46875 µM	1.01	1.5	1.62	1.61	1.58	1.59
0.9375 µM	1.01	1.53	1.75	1.81	1.74	1.78
1.875 µM	1.03	1.56	1.83	1.92	1.87	1.86
3.75 µM	1.03	1.54	1.85	1.93	1.9	1.99
7.5 µM	1.05	1.54	1.87	1.98	1.95	2.05
15 µM	1.02	1.46	1.8	1.99	2.03	2.15
30 µM	–	–	1.66	–	–	–

Cn1cnc2c(F)c(Nc3ccc(Br)cc3Cl)c(C(=O)NOCCO)cc21 [Selumetinib]
KRAS:CRAF interaction luminescence
Conditions	time after treatment 0 h	time after treatment 1 h	time after treatment 4 h	time after treatment 6 h	time after treatment 9 h	time after treatment 12 h
0.00375 µM	0.968	0.983	0.958	0.954	0.937	0.963
0.0075 µM	0.975	0.977	0.949	0.931	0.943	0.974
0.015 µM	1.01	0.979	0.958	0.953	0.939	0.934
0.03 µM	0.961	0.971	0.973	0.97	0.956	0.965
0.06 µM	0.995	0.976	0.976	0.935	0.945	0.984
0.12 µM	0.994	0.979	0.974	0.975	0.948	0.973
0.24 µM	0.994	0.993	0.988	0.975	0.96	0.963
0.46875 µM	1	0.995	1	0.985	0.982	0.992
0.9375 µM	1.01	1.04	1.02	1.03	0.994	1.01
1.875 µM	0.978	1.07	1.06	1.06	1.04	1.06
3.75 µM	0.99	1.14	1.12	1.1	1.1	1.11
7.5 µM	1.01	1.02	1	0.995	0.981	0.998
15 µM	1.02	1.02	1	0.983	0.974	0.987
30 µM	–	–	0.953	–	–	–

CNc1ncc2cc(-c3cc(NC(=O)NCCC(C)(C)C)c(F)cc3C)c(C)nc2n1
KRAS:CRAF interaction luminescence
Conditions	time after treatment 0 h	time after treatment 1 h	time after treatment 4 h	time after treatment 6 h	time after treatment 9 h	time after treatment 12 h
0.00375 µM	0.987	0.979	1.01	1.05	1.09	1.15
0.0075 µM	0.976	0.98	1.04	1.1	1.15	1.24
0.015 µM	0.996	0.98	1.07	1.16	1.22	1.32
0.03 µM	0.983	0.968	1.14	1.24	1.35	1.45
0.06 µM	1	0.994	1.21	1.34	1.46	1.58
0.12 µM	1	0.996	1.26	1.42	1.58	1.7
0.24 µM	0.955	0.991	1.35	1.57	1.76	1.96
0.46875 µM	0.987	1.03	1.42	1.67	1.84	2.05
0.9375 µM	0.982	1.06	1.51	1.75	1.91	2.07
1.875 µM	1	1.09	1.54	1.8	1.91	2.07
3.75 µM	0.971	1.08	1.59	1.77	1.89	2.04
7.5 µM	1.03	1.16	1.57	1.74	1.8	1.92
15 µM	1.03	1.14	1.47	1.59	1.62	1.78
30 µM	–	–	1.13	–	–	–

From the supplement of paper PMC8443649
